Test results reported in patent US20240067632A1, “WEE1 Degrading Compounds and Uses Thereof” (Bristol-Myers Squibb Company, priority 2022, published 2024).

How the values were obtained:
WEE1 = molecular target: T1, WEE1 (Homo sapiens, UniProt P30291+Q96SW2); experiment: WEE1-ePL degradation assay (LentiX-WEE1-ePL-GSPT1-ND cells, InCELL Hunter luminescence, 4 h); format: cell-based; details: 293T-LentiX WEE1-ePL cells; for 293T-LentiX WEE1-ePL Degradation 4 hr (Ymin): lower limit of the fit (0 = luciferase inhibitor, Ymax = DMSO control); for DC50: read-out: 293T-LentiX WEE1-ePL Degradation 4 hr (EC50)
T1 construct: C-terminal ePL-tagged (DiscoverX, Fremont, CA) full-length WEE1 expression construct; expressed in transfected cells; host or cells: LentiX-HEK293T (Invitrogen), lentiviral transduction; co-expressing GSPT1-GN (G576N, lacking the first 158 amino acids)
Method in brief: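 HEK293T cells stably expressing C-terminal ePL-tagged full-length WEE1, 2500 cells/well, treated 4 h at 37° C with a 10-point 3-fold series from 1 or 10 uM. Remaining WEE1-ePL read by InCELL Hunter luminescence after 30 min. EC50 came from a four-parameter logistic fit, with Ymax set from DMSO control.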

MKN45 cells = experiment: MKN45 cell proliferation assay (Cell-Titer-Glo, 120 h); format: cell-based; details: for EC50: Homo sapiens, MKN-45, 120 h, Cell-Titer-Glo, growth inhibition, read-out: MKN45 Cell Prolif. 120 hr (EC50); for MKN45 Cell Prolif. 120 hr (Ymin-Obs): minimal percent of DMSO control observed in the concentrations tested
Method in brief: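 Growth inhibition was read as blank-corrected Cell-Titer-Glo luminescence expressed as percent DMSO control after 120 h at 37 C, 400 cells/well. Compounds tested in triplicate as 10-point half-log series from 1 or 10 uM, 0.1% DMSO; four-parameter fit gave EC50, and lowest observed percent control was reported as Ymin-obs.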

SMILES	293T-LentiX WEE1-ePL Degradation 4 hr (Ymin) (WEE1)	DC50 (WEE1)	EC50 (MKN45 cells)	MKN45 Cell Prolif. 120 hr (Ymin-Obs) (MKN45 cells)
O=C1CCC(N2Cc3cc(O[C@H]4CCN(Cc5ccc6nc(C7CCOCC7)ccc6c5)C4)ccc3C2=O)C(=O)N1 (stereo partly drawn) [3-(5-{[(3S)-1-{[2-(oxan-4-yl)quinolin-6-yl]methyl}pyrrolidin-3-yl]oxy}-1-oxo-2,3-dihydro-1H-isoindol-2-yl)piperidine-2,6-dione]	32.6	2.83 nM	4.9 nM	12.83
O=C1CCC(N2Cc3cc(O[C@H]4CCN(Cc5ccc6nc(OC7CCOCC7)ccc6c5)C4)ccc3C2=O)C(=O)N1 (stereo partly drawn) [3-(5-{[(3S)-1-{[2-(oxan-4-yloxy)quinolin-6-yl]methyl}pyrrolidin-3-yl]oxy}-1-oxo-2,3-dihydro-1H-isoindol-2-yl)piperidine-2,6-dione]	33	4.52 nM	9.83 nM	13.54
O=C1CCC(N2Cc3cc(O[C@H]4CCN(Cc5ccc6nc(C7COC7)ncc6c5)C4)ccc3C2=O)C(=O)N1 (stereo partly drawn) [3-(5-{[(3S)-1-{[2-(oxetan-3-yl)quinazolin-6-yl]methyl}pyrrolidin-3-yl]oxy}-1-oxo-2,3-dihydro-1H-isoindol-2-yl)piperidine-2,6-dione]	30	16.8 nM	16.7 nM	7.8
O=C1CCC(N2Cc3cc(O[C@H]4CCN(Cc5ccc6nc(C7COC7)ccc6c5)C4)ccc3C2=O)C(=O)N1 (stereo partly drawn) [3-(5-{[(3S)-1-{[2-(oxetan-3-yl)quinolin-6-yl]methyl}pyrrolidin-3-yl]oxy}-1-oxo-2,3-dihydro-1H-isoindol-2-yl)piperidine-2,6-dione]	33	3.79 nM	11.2 nM	10.08
O=C1CCC(N2Cc3cc(O[C@H]4CCN(Cc5ccc6ncc(C(F)F)cc6c5)C4)ccc3C2=O)C(=O)N1 (stereo partly drawn) [3-(5-{[(3S)-1-{[3-(difluoromethyl)quinolin-6-yl]methyl}pyrrolidin-3-yl]oxy}-1-oxo-2,3-dihydro-1H-isoindol-2-yl)piperidine-2,6-dione]	33	3.38 nM	14.4 nM	11.04
COCc1cnc2ccc(CN3CC[C@H](Oc4ccc5c(c4)CN(C4CCC(=O)NC4=O)C5=O)C3)cc2c1 (stereo partly drawn) [3-(5-{[(3S)-1-{[3-(methoxymethyl)quinolin-6-yl]methyl}pyrrolidin-3-yl]oxy}-1-oxo-2,3-dihydro-1H-isoindol-2-yl)piperidine-2,6-dione]	33	4.28 nM	11.1 nM	7.64
CNc1cnc2ccc(CN3CC[C@H](Oc4ccc5c(c4)CN(C4CCC(=O)NC4=O)C5=O)C3)cc2c1 (stereo partly drawn) [3-(5-{[(3S)-1-{[3-(methylamino)quinolin-6-yl]methyl}pyrrolidin-3-yl]oxy}-1-oxo-2,3-dihydro-1H-isoindol-2-yl)piperidine-2,6-dione]	34	18.1 nM	204 nM	16.86
O=C1CCC(N2Cc3cc(O[C@H]4CCN(Cc5ccc6ncc(N7CCOCC7)cc6c5)C4)ccc3C2=O)C(=O)N1 (stereo partly drawn) [3-(5-{[(3S)-1-{[3-(morpholin-4-yl)quinolin-6-yl]methyl}pyrrolidin-3-yl]oxy}-1-oxo-2,3-dihydro-1H-isoindol-2-yl)piperidine-2,6-dione]	27	3.19 nM	2.96 nM	7.83
O=C1CCC(N2Cc3cc(O[C@H]4CCN(Cc5ccc6ncc(C7COC7)cc6c5)C4)ccc3C2=O)C(=O)N1 (stereo partly drawn) [3-(5-{[(3S)-1-{[3-(oxetan-3-yl)quinolin-6-yl]methyl}pyrrolidin-3-yl]oxy}-1-oxo-2,3-dihydro-1H-isoindol-2-yl)piperidine-2,6-dione]	30	4.67 nM	5.04 nM	8.08
[2H]c1nc2ccc(CN3CCC(Oc4ccc5c(c4)CN(C4CCC(=O)NC4=O)C5=O)C3)cc2cc1F [3-(5-{[(3S)-1-{[3-fluoro(2-^2H)quinolin-6-yl]methyl}pyrrolidin-3-yl]oxy}-1-oxo-2,3-dihydro-1H-isoindol-2-yl)piperidine-2,6-dione]	35	3.57 nM	94.9 nM	21.68

Continued, in another order:

293T-LentiX WEE1-ePL Degradation 4 hr (Ymin) (WEE1)	DC50 (WEE1)	EC50 (MKN45 cells)	SMILES	MKN45 Cell Prolif. 120 hr (Ymin-Obs) (MKN45 cells)
36	5.37 nM	9.28 nM	Cc1nc(N2CCOCC2)nc2ccc(CN3CC[C@H](Oc4ccc5c(c4)CN(C4CCC(=O)NC4=O)C5=O)C3)cc12 (stereo partly drawn) [3-(5-{[(3S)-1-{[4-methyl-2-(morpholin-4-yl)quinazolin-6-yl]methyl}pyrrolidin-3-yl]oxy}-1-oxo-2,3-dihydro-1H-isoindol-2-yl)piperidine-2,6-dione]	7.12
32	1.33 nM	1.29 nM	O=C1CCC(N2Cc3cc(O[C@H]4CCN(Cc5ccc6nc(C7CCOCC7)ccc6c5F)C4)ccc3C2=O)C(=O)N1 (stereo partly drawn) [3-(5-{[(3S)-1-{[5-fluoro-2-(oxan-4-yl)quinolin-6-yl]methyl}pyrrolidin-3-yl]oxy}-1-oxo-2,3-dihydro-1H-isoindol-2-yl)piperidine-2,6-dione]	10.02
46	11.7 nM	89.6 nM	COCc1ccc2nc(CN3CC[C@H](Oc4ccc5c(c4)CN(C4CCC(=O)NC4=O)C5=O)C3)ccc2c1 (stereo partly drawn) [3-(5-{[(3S)-1-{[6-(methoxymethyl)quinolin-2-yl]methyl}pyrrolidin-3-yl]oxy}-1-oxo-2,3-dihydro-1H-isoindol-2-yl)piperidine-2,6-dione]	26.02
33.5	5.55 nM	12.3 nM	O=C1CCC(N2Cc3cc(O[C@H]4CCN(Cc5cc6cc(C7CCOCC7)ccc6cn5)C4)ccc3C2=O)C(=O)N1 (stereo partly drawn) [3-(5-{[(3S)-1-{[6-(oxan-4-yl)isoquinolin-3-yl]methyl}pyrrolidin-3-yl]oxy}-1-oxo-2,3-dihydro-1H-isoindol-2-yl)piperidine-2,6-dione]	13.12
31	5.41 nM	16.2 nM	CC(C)(O)c1ccc2cc(CN3CC[C@H](Oc4ccc5c(c4)CN(C4CCC(=O)NC4=O)C5=O)C3)ncc2c1 (stereo partly drawn) [3-(5-{[(3S)-1-{[7-(2-hydroxypropan-2-yl)isoquinolin-3-yl]methyl}pyrrolidin-3-yl]oxy}-1-oxo-2,3-dihydro-1H-isoindol-2-yl)piperidine-2,6-dione]	7.18
32	1.21 nM	6.04 nM	COC(C)(C)c1ccc2cc(CN3CC[C@H](Oc4ccc5c(c4)CN(C4CCC(=O)NC4=O)C5=O)C3)ncc2c1 (stereo partly drawn) [3-(5-{[(3S)-1-{[7-(2-methoxypropan-2-yl)isoquinolin-3-yl]methyl}pyrrolidin-3-yl]oxy}-1-oxo-2,3-dihydro-1H-isoindol-2-yl)piperidine-2,6-dione]	11.51
